{"source": "ChEMBL document CHEMBL3352180", "about": "“From chemical tools to clinical medicines: nonimmunosuppressive cyclophilin inhibitors derived from the cyclosporin and sanglifehrin scaffolds” (J Med Chem, 2014)", "key": {"[1]": {"species_on_record": "Homo sapiens", "experiment": "Inhibition of Pgp (unknown origin) assessed as reduction in pump efflux activity"}, "[2]": {"biological_target": "Peptidyl-prolyl cis-trans isomerase A (Homo sapiens, UniProt P62937)", "sequence (P62937 whole entry)": "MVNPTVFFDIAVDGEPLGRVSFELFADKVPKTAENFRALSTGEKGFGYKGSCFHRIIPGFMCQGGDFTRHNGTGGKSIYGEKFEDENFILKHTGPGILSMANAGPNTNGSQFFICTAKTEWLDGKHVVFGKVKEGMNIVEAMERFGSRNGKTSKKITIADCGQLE", "description": "Binding affinity to cyclophilin A (unknown origin)"}, "[3]": {"biological_target": "Peptidyl-prolyl cis-trans isomerase F, mitochondrial (Homo sapiens, UniProt P30405)", "sequence (P30405 whole entry)": "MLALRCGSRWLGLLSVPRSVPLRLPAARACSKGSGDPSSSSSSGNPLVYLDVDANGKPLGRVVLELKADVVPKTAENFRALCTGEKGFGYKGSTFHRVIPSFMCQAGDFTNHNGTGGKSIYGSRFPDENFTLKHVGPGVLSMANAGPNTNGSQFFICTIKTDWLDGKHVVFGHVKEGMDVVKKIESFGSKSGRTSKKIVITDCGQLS", "description": "Binding affinity to cyclophilin D (unknown origin)"}, "[4]": {"tested_on": "Hepatitis C virus", "experiment": "microbe, parasite or virus in culture", "description": "Antiviral activity against HCV by replicon based assay"}, "[5]": {"tested_on": "Hepatitis C virus", "experiment": "Antiviral activity against HCV assessed as inhibition of viral replication at 1 uM by replicon based assay", "format": "functional, Hepacivirus hominis"}, "[6]": {"tested_on": "Lymphocyte", "experiment": "cells", "description": "Immunosuppressive activity in lymphocytes (unknown origin) by mixed lymphocyte reaction assay"}}, "data": [{"smiles": "C/C=C/C[C@@H](C)[C@@H](O)[C@H]1C(=O)N[C@@H](CC)C(=O)N(C)[C@H](SCCN(C)C)C(=O)N(C)[C@@H](CC(C)(C)O)C(=O)N[C@@H](C(C)C)C(=O)N(C)[C@@H](CC(C)C)C(=O)N[C@@H](C)C(=O)N[C@H](C)C(=O)N(C)[C@@H](CC(C)C)C(=O)N(C)[C@@H](CC(C)C)C(=O)N(C)[C@@H](C(C)C)C(=O)N1C", "values": [{"measurement": "INH", "setting": "[1]", "value": 15, "unit": "µM"}]}, {"smiles": "C/C=C/C[C@@H](C)[C@@H](O)[C@H]1C(=O)N[C@@H](CC)C(=O)N(C)[C@@H](C)C(=O)N(C)[C@@H](CC(C)C)C(=O)N(CC=C(C)C)[C@@H](C(C)C)C(=O)N(C)[C@@H](CC(C)C)C(=O)N[C@@H](C)C(=O)N[C@H](C)C(=O)N(C)[C@@H](CC(C)C)C(=O)N(C)[C@@H](CC(C)C)C(=O)N(C)[C@@H](C(C)C)C(=O)N1C", "values": [{"measurement": "Kd", "setting": "[2]", "value": "< 60", "unit": "nM"}, {"measurement": "Kd", "setting": "[3]", "value": "< 60", "unit": "nM"}, {"measurement": "EC50", "setting": "[4]", "value": "< 200", "unit": "nM"}]}, {"smiles": "CC(C)[C@@H]1OC(=O)[C@]2(/C=C/c3ccc4ccc(nc4c3)[C@@H](C)OC(=O)[C@@H]3CCCN(N3)C(=O)[C@H](C)NC1=O)CC[C@H](O)CC2", "values": [{"measurement": "inhibition at 1 µM", "setting": "[5]", "value": 99, "unit": "%"}]}, {"smiles": "C/C=C/C[C@@H](C)[C@@H](O)[C@H]1C(=O)N[C@@H](CC)C(=O)N(C)[C@@H](SCCCN2CCOCC2)C(=O)N(C)[C@@H](CC(C)C)C(=O)N[C@@H](C(C)C)C(=O)N(C)[C@@H](CC(C)C)C(=O)N[C@@H](C)C(=O)N[C@H](C)C(=O)N(C)[C@@H](CC(C)C)C(=O)N(C)[C@@H](CC(C)C)C(=O)N(C)[C@@H](C(C)C)C(=O)N1C", "values": [{"measurement": "EC50", "setting": "[6]", "value": 3000, "unit": "nM"}]}, {"smiles": "CC(C)[C@@H]1NC(=O)C([C@H](C)O)/C=C/c2ccc3ccc(nc3c2)[C@@H](C)OC(=O)[C@@H]2CCCN(N2)C(=O)[C@H](C)NC1=O", "note": "(some centres not stated)", "values": [{"measurement": "inhibition at 1 µM", "setting": "[5]", "value": 99, "unit": "%"}]}]}
